One assay addresses T1, Aurora A (Homo sapiens, UniProt O14965).
T1 sequence (O14965 1-403): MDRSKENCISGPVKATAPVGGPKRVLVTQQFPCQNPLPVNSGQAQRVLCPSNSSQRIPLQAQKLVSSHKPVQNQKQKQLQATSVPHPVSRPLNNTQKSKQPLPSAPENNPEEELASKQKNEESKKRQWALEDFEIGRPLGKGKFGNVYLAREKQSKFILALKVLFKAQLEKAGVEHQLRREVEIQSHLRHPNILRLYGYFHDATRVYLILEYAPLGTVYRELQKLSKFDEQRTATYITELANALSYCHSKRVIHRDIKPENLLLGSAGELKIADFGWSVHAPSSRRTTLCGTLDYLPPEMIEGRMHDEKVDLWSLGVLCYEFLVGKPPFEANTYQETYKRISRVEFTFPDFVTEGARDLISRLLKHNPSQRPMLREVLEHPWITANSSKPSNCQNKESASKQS
In words: Aurora A enzyme inhibition (time-resolved fluorescence, STK substrate-2). Format: biochemical. The settings on record: 1 mM ATP. An outline of the steps:
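Active enzyme incubated 1 h with biotinylated STK substrate-2, 1 mM ATP and inhibitor in Hepes pH 7.4 with MgCl2, orthovanadate and Triton X-100. EDTA stop; phosphopeptide detected by Eu-cryptate anti-phospho-STK/SA-XL665 TR-FRET (665/615 nm ratio); IC50 by exponential fit.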

The next assay has as its system NCI-H1299 cells. Briefly: Induction of polyploidy in H1299. Format: cell-based, Human. The settings on record: Homo sapiens; NCI-H1299, 48 hours; read-out: EC15 (concentration of inhibitor necessary to induce polyploidy in 15% of cells). The method in brief: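 NCI-H1299 cells in RPMI 1640/10% FCS were treated with inhibitor concentrations in duplicate for 48 h at 37 C, then formalin-fixed and Hoechst-stained. Nuclear area was measured by high-content imaging, with polyploid (≥4N) defined as >750 μ^2. EC15 was derived by least-squares fit of log dose-response.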

Structures are written as SMILES.

At Aurora A, `NC(=O)[C@@H]1[C@H](Nc2nc(Nc3cnn(C4CCNCC4)c3)ncc2Br)[C@H]2C=C[C@@H]1C2` [Example 95, (1S,2S,3R,4R)-3-[(5-bromo-2-{[1-(piperidin-4-yl)-1H-pyrazol-4-yl]amino}pyrimidin-4-yl)amino]bicyclo[2.2.1]hept-5-ene-2-carboxamide] gave a Ki of less than 100 nM. Moreover, the EC15 with NCI-H1299 cells was 100 to 1000 nM.

For `CN1CCN(CCn2cc(Nc3ncc(Br)c(N[C@H]4[C@@H](C(N)=O)[C@@H]5C=C[C@H]4C5)n3)cn2)CC1` [Example 94, (1S,2S,3R,4R)-3-{[5-bromo-2-({1-[2-(4-methylpiperazin-1-yl)ethyl]-1H-pyrazol-4-yl}amino)pyrimidin-4-yl]amino}bicyclo[2.2.1]hept-5-ene-2-carboxamide], the Ki at Aurora A was less than 100 nM. In addition, the EC15 in the assay on NCI-H1299 cells is less than 100 nM.

`COCCn1cc(Nc2ncc(Cl)c(N[C@H]3[C@@H](C(N)=O)[C@@H]4C=C[C@H]3C4)n2)cn1` [Example 96, (1S,2S,3R,4R)-3-[(5-chloro-2-{[1-(2-methoxyethyl)-1H-pyrazol-4-yl]amino}pyrimidin-4-yl)amino]bicyclo[2.2.1]hept-5-ene-2-carboxamide] gave an inhibitory constant (Ki) at Aurora A of less than 100 nM. Further, in the assay with NCI-H1299 cells, the EC15 fell in the range of 100 to 1000 nM.

As usually defined, the Ki is the equilibrium dissociation constant of an inhibitor or competing ligand from its target.

The values above are taken from US8426408B2, “Pyrimidine inhibitors of kinases” (AbbVie Inc., priority 2009, dated 2013).
